Measurements as given in patent US20060229433A1, “Modified antiviral peptides with increased activity and cell membrane affinity” (priority 2003, published 2006).
Where “and” joins values, the source holds several entries; their conditions need not be identical. Equal entries are not always repeated.

Tests used:
Format in all cases: cell-based
HIV-1 NL 4-3 [1] = test: HIV-1 infection of C8166 cells (syncytia formation, p24 ELISA) with HIV-1 NL 4-3; parameters: key: ++, +, (+), (+)− and − represent decreasing numbers of syncitia formed; ++, +, (+), (+)− and − represent decreasing numbers of syncitia formed; ++, +, (+), (+)− and − represent decreasing numbers of syncitia formed; ++, +, (+), (+)− and − represent decreasing numbers of syncitia formed; ++, +, (+), (+)− and − represent decreasing numbers of syncitia formed
Summary of the method: (§1)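 C8166 T-cells were preincubated with peptide for 1 h at 37 °C, then exposed for 1 h to HIV-1 at 1000 TCID50/ml, washed, and cultured with peptide kept present throughout, with medium replaced at day 4. Infection was scored by syncytia formation and by supernatant p24 ELISA, with at least two runs in duplicate.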

HIV-1 NDK = test: HIV-1 infection of C8166 cells (syncytia formation, p24 ELISA) with HIV-1 NDK; parameters: key to syncitia formed, Day 4 / syncitia formed, Day 5 / syncitia formed, Day 6 / syncitia formed, Day 7: ++, +, (+), (+)− and − represent decreasing numbers of syncitia formed; ++, +, (+), (+)− and − represent decreasing numbers of syncitia formed; ++, +, (+), (+)− and − represent decreasing numbers of syncitia formed; ++, +, (+), (+)− and − represent decreasing numbers of syncitia formed; ++, +, (+), (+)− and − represent decreasing numbers of syncitia formed; conditions: for P 24: P 24 after Day 7
Summary of the method: as §1

HIV-1 NL 4-3 [2] = test: HIV-1 infection of C8166 cells (syncytia formation, p24 ELISA) with HIV-1 NL 4-3
Summary of the method: as §1

[3] = C8166 cells, HIV-1 subtype B NL 4-3, Table 9, two lines = tested twice, 8 days apart

## C[C@H](NC(=O)[C@H](CCCNC(=N)N)NC(=O)CNC(=O)[C@@H]1CCCN1C(=O)CN)C(=O)N[C@@H](Cc1ccccc1)C(=O)NCCCC[C@H](NC(=O)[C@H](Cc1ccccc1)NC(=O)[C@H](C)NC(=O)[C@H](CCCNC(=N)N)NC(=O)CNC(=O)[C@@H]1CCCN1C(=O)CN)C(=O)NCCCC[C@H](NC(=O)[C@H](CCCCNC(=O)[C@H](Cc1ccccc1)NC(=O)[C@H](C)NC(=O)[C@H](CCCNC(=N)N)NC(=O)CNC(=O)[C@@H]1CCCN1C(=O)CN)NC(=O)[C@H](Cc1ccccc1)NC(=O)[C@H](C)NC(=O)[C@H](CCCNC(=N)N)NC(=O)CNC(=O)[C@@H]1CCCN1C(=O)CN)C(=O)NCCCC[C@H](NC(=O)[C@H](CCCCNC(=O)[C@H](CCCCNC(=O)[C@H](Cc1ccccc1)NC(=O)[C@H](C)NC(=O)[C@H](CCCNC(=N)N)NC(=O)CNC(=O)[C@@H]1CCCN1C(=O)CN)NC(=O)[C@H](Cc1ccccc1)NC(=O)[C@H](C)NC(=O)[C@H](CCCNC(=N)N)NC(=O)CNC(=O)[C@@H]1CCCN1C(=O)CN)NC(=O)[C@H](CCCCNC(=O)[C@H](Cc1ccccc1)NC(=O)[C@H](C)NC(=O)[C@H](CCCNC(=N)N)NC(=O)CNC(=O)[C@@H]1CCCN1C(=O)CN)NC(=O)[C@H](Cc1ccccc1)NC(=O)[C@H](C)NC(=O)[C@H](CCCNC(=N)N)NC(=O)CNC(=O)[C@@H]1CCCN1C(=O)CN)C(=O)NCCC(=O)O [SPC3, (GPGRAF)8-K4-K2-K-βA-OH, reference compound]
HIV-1 NL 4-3 [1]; 0.005 μM, Table 6
  Day 4 syncitia formed: −
  Day 5 syncitia formed: +
  Day 6 syncitia formed: ++
HIV-1 NL 4-3 [1]; 0.01 μM, Table 6
  Day 4 syncitia formed: −
  Day 5 syncitia formed: +
  Day 6 syncitia formed: ++
HIV-1 NL 4-3 [1]; 0.05 μM, Table 6
  Day 4 syncitia formed: −
  Day 5 syncitia formed: +
  Day 6 syncitia formed: ++
HIV-1 NL 4-3 [1]; 0.1 μM, Table 6
  Day 4 syncitia formed: −
  Day 5 syncitia formed: (+)
  Day 6 syncitia formed: + and ++
  Day 7 syncitia formed: ++
HIV-1 NL 4-3 [1]; 0.5 μM, Table 6
  Day 4 syncitia formed: −
  Day 5 syncitia formed: −
  Day 6 syncitia formed: (+)
  Day 7 syncitia formed: +
HIV-1 NL 4-3 [1]; 1 μM, Table 6
  Day 4 syncitia formed: −
  Day 5 syncitia formed: −
  Day 6 syncitia formed: −
  Day 7 syncitia formed: (+)
HIV-1 NL 4-3 [1]; 2 μM, Table 1
  Day 4 syncitia formed: −
  Day 5 syncitia formed: (+) and (+)−
  Day 6 syncitia formed: +
  Day 7 syncitia formed: ++
HIV-1 NL 4-3 [1]; 5 μM, Table 1
  Day 4 syncitia formed: −
  Day 5 syncitia formed: −
  Day 6 syncitia formed: −
  Day 7 syncitia formed: −
HIV-1 NL 4-3 [1]; 5 μM, Table 6
  Day 4 syncitia formed: −
  Day 5 syncitia formed: −
  Day 6 syncitia formed: −
  Day 7 syncitia formed: −
HIV-1 NDK; 0.005 μM
  syncitia formed, Day 4: −
  syncitia formed, Day 5: +
  syncitia formed, Day 6: ++
  syncitia formed, Day 7: ++/T
  P 24: 23810 pg/mL
HIV-1 NDK; 0.01 μM
  syncitia formed, Day 4: −
  syncitia formed, Day 5: +
  syncitia formed, Day 6: ++
  syncitia formed, Day 7: ++/T
  P 24: 23810 pg/mL
HIV-1 NDK; 0.05 μM
  syncitia formed, Day 4: −
  syncitia formed, Day 5: +
  syncitia formed, Day 6: ++
  syncitia formed, Day 7: ++/T
  P 24: 23810 pg/mL
HIV-1 NDK; 0.1 μM
  syncitia formed, Day 4: −
  syncitia formed, Day 5: (+)
  syncitia formed, Day 6: + and ++
  syncitia formed, Day 7: ++
  P 24: 18810 pg/mL and 20850 pg/mL
HIV-1 NDK; 0.5 μM
  syncitia formed, Day 4: −
  syncitia formed, Day 5: −
  syncitia formed, Day 6: +
  syncitia formed, Day 7: ++
  P 24: 15173 pg/mL and 12840 pg/mL
HIV-1 NDK; 1 μM
  syncitia formed, Day 4: −
  syncitia formed, Day 5: −
  syncitia formed, Day 6: −
  syncitia formed, Day 7: (+)
HIV-1 NDK; 5 μM
  syncitia formed, Day 4: −
  syncitia formed, Day 5: −
  syncitia formed, Day 6: −
  syncitia formed, Day 7: −
HIV-1 NDK; HIV 1 NDK, Table 10
  IC50: 600 nM
  IC100: 5 µM
HIV-1 NL 4-3 [2]; 0.005 μM, Table 6
  Day 7 syncitia formed: ++/T
HIV-1 NL 4-3 [2]; 0.01 μM, Table 6
  Day 7 syncitia formed: ++/T
HIV-1 NL 4-3 [2]; 0.05 μM, Table 6
  Day 7 syncitia formed: ++/T
HIV-1 NL 4-3 [2]; C8166 cells, HIV-1 subtype B NL 4-3, Table 3
  IC50: 500 nM
HIV-1 NL 4-3 [2]; [3]
  IC50: 500 nM
  IC100: 5 µM
HIV-1 NL 4-3 [2]; Day 4, 5 μM, Table 1
  P 24: NEG
HIV-1 NL 4-3 [2]; Day 4, 5 μM, Table 2
  P 24: NEG
HIV-1 NL 4-3 [2]; Day 7, 0.005 μM, Table 6
  P 24: 23810 pg/mL
HIV-1 NL 4-3 [2]; Day 7, 0.01 μM, Table 6
  P 24: 23810 pg/mL
HIV-1 NL 4-3 [2]; Day 7, 0.05 μM, Table 6
  P 24: 23810 pg/mL
HIV-1 NL 4-3 [2]; Day 7, 0.1 μM, Table 6
  P 24: 17810 pg/mL and 19850 pg/mL
HIV-1 NL 4-3 [2]; Day 7, 0.5 μM, Table 6
  P 24: 5173 pg/mL and 4840 pg/mL
HIV-1 NL 4-3 [2]; Day 7, 2 μM, Table 1
  P 24: 7589 pg/mL and 14787 pg/mL
HIV-1 NL 4-3 [2]; Day 7, 5 μM, Table 1
  P 24: NEG
HIV-1 NL 4-3 [2]; Day 7, 5 μM, Table 2
  P 24: 288 pg/mL and 342 pg/mL
HIV-1 NL 4-3 [2]; Day 7, 5 μM, Table 6
  P 24: 3 pg/mL
